1 substance from patent US11497210B2, “Compositions and methods for long lasting disinfection” (RHODIA OPERATIONS, priority 2018, dated 2022) can be followed below.

In experiment [1] the test system is Enterobacter aerogenes. As to the kind of experiment: RSS-12 h residual self-sanitizing test (modified EPA Protocol #01-1A, 3 wear cycles). The experiment is classed as cell-based. The conditions noted are these: 150 microliters. On the procedure:
In order to substantiate 24 hour long-term sanitization claims with the United States Environmental Protection Agency (EPA), compositions are evaluated with the residual self-sanitization (RSS) method, EPA Protocol #01-1A (https://www.epa.gov/sites/production/files/2015-09/documents/cloroxpcol_final.pdf). For validating longer term disinfection, all extant test protocols emulate the maximum amount of recontamination and abrasion by touching and wiping anticipated before reapplication, typically a 24 hour period. An intermediate protocol with approximately half the level abrasion and re-soiling challenge to a surface is presented here as the “RSS-12 h” test protocol.
Long lasting disinfection claims are substantiated by the RSS test, which challenges the applied composition by subjecting it to recontamination (re-inoculation with microorganisms) and abrasion (wear cycles). An intermediate test protocol, with approximately half the number of re-inoculations and wear cycles (“RSS-12 h”) is used to predict disinfection that is durable up to 12 hours before reapplication of the test product. As outlined in FIG. 1, this procedure requires preparation of the test bacterial (microbial) culture over the first week (see EPA Protocol #01-1A) followed by testing in week 2.
The testing involves inoculating the surface with bacteria, followed by application of the product on the substrate and allowing it to dry. The substrate may be glass, polycarbonate, or steel. This substrate is then subjected to an abrasion—re-inoculation regime of 3 “wear cycles”. The abrasion is conducted with a 1084 gwt. rectangular steel block covered with a cloth with an underlying thin polyurethane-foam layer. Each wear cycle is composed of a “dry” abrasion and a “wet” abrasion, the latter with the cloth cover having been wet with a mist of water using a Preval® sprayer. Each abrasion (dry/wet) is characterized by a back and forth motion of the block across the test substrate. Each abrasion cycle is followed by re-inoculation the surface with a bacterial culture. The RSS-12 h involves a 3-abrasion cycle/3-inoculations test as compared to the full RSS test that outlines a 6-abrasion cycle/6-inoculation test regimen. All other details of the test method are as outlined in the EPA Protocol #01-1A.
The test substrate is allowed to dry overnight and then finally inoculated again (sanitizer test) for 5 minutes, followed by neutralization of the entire substrate. Surviving bacteria is then harvested off the surface and cultured with serial dilutions on agar plates, allowing colony formation over 24-48 hours. Surviving bacteria are then counted as the number of colonies. […] The bacteria in this test may be substituted for other microorganisms such as fungi or viruses. In an embodiment, microorganisms are selected from gram-positive bacteria (e.g Staphylococcus aureus), gram-negative bacteria (e.g. Enterobacter aerogenes), fungi, enveloped viruses, non-enveloped viruses, and combinations thereof.
Films prepared from Formula C were evaluated using RSS-12 h protocol as described above, a modified version the residual self-sanitization (RSS) method, EPA Protocol #01-1A. Protocol #01-1A is a method approved by the EPA for measuring long-term sanitization claims (i.e., “kill later” durability claim). Protocol #01-1A, the entire contents of which are incorporated by reference, measures the residual self-sanitizing activity of dried chemical residues (films) on inanimate, hard, non-porous surfaces against bacteria: Staphylococcus aureus, Klebsiella pneumoniae, and/or Enterobacter aerogenes. In particular, surfaces are inoculated, treated with test product, allowed to dry, then abraded under alternating wet and dry conditions, which are interspersed with several re-inoculations. (FIG. 1).
The test shown in Table 3 was conducted on a steel substrate (1 inch×1 inch) with Enterobacter aerogenes, a gram negative bacteria which is typically more resistant. […]

The subject of experiment [2] is Enterobacter aerogenes. Briefly: RSS-24, EPA Protocol #01-1A residual self-sanitizing activity test (6 abrasion cycles). It counts as cell-based. The conditions noted are these: Table 5, 150 microliters, stainless steel. On the procedure: In order to substantiate 24 hour long-term sanitization claims with the United States Environmental Protection Agency (EPA), compositions are evaluated with the residual self-sanitization (RSS) method, EPA Protocol #01-1A (https://www.epa.gov/sites/production/files/2015-09/documents/cloroxpcol_final.pdf). For validating longer term disinfection, all extant test protocols emulate the maximum amount of recontamination and abrasion by touching and wiping anticipated before reapplication, typically a 24 hour period. An intermediate protocol with approximately half the level abrasion and re-soiling challenge to a surface is presented here as the “RSS-12 h” test protocol. […]
The test substrate is allowed to dry overnight and then finally inoculated again (sanitizer test) for 5 minutes, followed by neutralization of the entire substrate. […] Surviving bacteria are then counted as the number of colonies. […]
Formula C was then further evaluated by (EPA) Protocol #01-1A residual self-sanitizing activity test with 6 alternating abrasion cycles (wet and dry each) for a 24 hour claim. […] When evaluated with 150 microliters of Formula C on a (1×1) steel substrate with Enterobacter aerogenes, >3 LR were achieved as required by the test (Table 5), indicating a pass for RSS-24.

The mark [3] stands for this setting: Table 4, reduced quat content, stainless steel.

Triton X-100: the Log in the experiment on Enterobacter aerogenes [1] (Table 3, log of surviving cfu, stainless steel) is 6.48; in the experiment with Enterobacter aerogenes [1] (setting [3]), 6.11; in the experiment with Enterobacter aerogenes [2], 7.27. The Avg. cfu/carrier worked out at 3.00E+06 cfu/carrier with Enterobacter aerogenes [1] (Table 3, stainless steel); 1.29E+06 cfu/carrier in the experiment on Enterobacter aerogenes [1] (setting [3]); 1.85E+07 cfu/carrier with Enterobacter aerogenes [2]. The geom. mean with Enterobacter aerogenes [1] (Table 3, stainless steel) amounted to 6.48. In the experiment on Enterobacter aerogenes [1] (stainless steel 1 inch x 1 inch, surviving population after final inoculation, triplicate), the avg. cfu/surface came to 3.00E+06 cfu/surface.
